Patent US20250154154A1 (Relay Binney Street, 2nd Floor, priority 2020, published 2025)
Counter-ions that a name gives are not always drawn.

Key:
[1] = molecular target: SRC (Homo sapiens, UniProt P12931); test: SRC Biochemical Assay Protocol (microfluidic mobility shift assay, FLPeptide4 substrate)
How it was run: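 Mobility-shift readout of phosphorylated FLPeptide4 (1.5 μM) after 90 min kinase reaction with 50 μM ATP and 0.26 nM SRC in pH 7.4 HEPES buffer. Compounds, tested 0.0017–100 μM, were preincubated 30 min with enzyme and peptide; IC50 from 4-parameter logistic fit versus neutral controls.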

[2] = system: RBE cells; test: Cell Viability Protocol (CellTiterGlo), RBE cells; type: cell-based; conditions: RBE or SNU-1079 cells, 72 or 120 hour, cell line and time not given
How it was run: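 After 72 h or 120 h compound exposure at 37° C, viability was read by CellTiterGlo as % of DMSO vehicle, with IC50 fitted by a 4-parameter curve. Cells had been seeded at 1200/well in 10% FBS RPMI 1640 and allowed 24 h before dosing.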

[3] = system: phospho-S6RP (Ser 235/236) in RBE cells; test: Cellular Proliferation Protocol (cellular phospho-S6RP HTRF), RBE cells; type: cell-based; conditions: 6 h, 6 hours treatment, RBE or SNU-1079 cells, cell line not given
How it was run: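 Phospho-S6RP (Ser 235/236) was quantified by HTRF in lysed RBE cells (2000/well) after a 6 h treatment at 37° C, with overnight antibody incubation at room temperature. IC50 values came from 4-parameter dose-response fits relative to DMSO vehicle.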

Sequence of SRC (P12931 whole entry, species assumed): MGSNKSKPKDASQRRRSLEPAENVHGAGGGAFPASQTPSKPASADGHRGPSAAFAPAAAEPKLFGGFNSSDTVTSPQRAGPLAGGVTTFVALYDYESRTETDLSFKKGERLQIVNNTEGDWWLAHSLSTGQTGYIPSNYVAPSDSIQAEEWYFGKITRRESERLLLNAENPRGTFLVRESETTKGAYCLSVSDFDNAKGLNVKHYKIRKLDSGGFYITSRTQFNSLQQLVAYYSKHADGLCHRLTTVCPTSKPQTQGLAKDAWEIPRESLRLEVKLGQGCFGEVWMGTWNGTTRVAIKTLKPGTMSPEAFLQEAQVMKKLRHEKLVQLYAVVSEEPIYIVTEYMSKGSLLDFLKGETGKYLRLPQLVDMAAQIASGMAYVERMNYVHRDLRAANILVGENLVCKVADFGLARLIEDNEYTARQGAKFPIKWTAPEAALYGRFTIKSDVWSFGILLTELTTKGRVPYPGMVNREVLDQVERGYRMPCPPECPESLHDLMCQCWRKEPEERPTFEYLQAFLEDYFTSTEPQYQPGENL

| Compound | IC50 [1] | IC50 [2] | IC50 [3] |
| --- | --- | --- | --- |
| Cn1c(C#CC2CC3(C2)CN(C(=O)/C=C/CN2CC(F)C2)C3)c(-c2ccc(Oc3ccccc3)cc2)c2c(N)ncnc21 [II-175, (E)-1-(6-((4-amino-7-methyl-5-(4-phenoxyphenyl)-7H-pyrrolo[2,3-d]pyrimidin-6-yl)ethynyl)-2-azaspiro[3.3]heptan-2-yl)-4-(3-fluoroazetidin-1-yl)but-2-en-1-one] | 10 to 1000 nM | ≤ 10 nM | 10 to 1000 nM |
| C=CC(=O)N1CCC(N2CC(F)(C#Cc3c(-c4ccc(Oc5ccccc5)cc4)c4c(N)ncnc4n3C)C2)CC1 [II-176, 1-(4-(3-((4-amino-7-methyl-5-(4-phenoxyphenyl)-7H-pyrrolo[2,3-d]pyrimidin-6-yl)ethynyl)-3-fluoroazetidin-1-yl)piperidin-1-yl)prop-2-en-1-one] | 10 to 1000 nM | ≤ 10 nM | ≤ 10 nM |
| C/C=C/S(=O)(=O)N1CCC(N2CC(C#Cc3c(-c4ccc(Oc5ccccc5)cc4)c4c(N)ncnc4n3C)C2)CC1 [II-177, (E)-7-methyl-5-(4-phenoxyphenyl)-6-((1-(1-(prop-1-enylsulfonyl)piperidin-4-yl)azetidin-3-yl)ethynyl)-7H-pyrrolo[2,3-d]pyrimidin-4-amine] | 10 to 1000 nM | 10 to 1000 nM | 10 to 1000 nM |
| C=CC(=O)N1CCCC(C#Cc2c(-c3ccc(Oc4ccccc4)cc3)c3c(N)ncnc3n2C)CC1 (stereo not drawn) [II-178, 1-(4-((4-amino-7-methyl-5-(4-phenoxyphenyl)-7H-pyrrolo[2,3-d]pyrimidin-6-yl)ethynyl)azepan-1-yl)prop-2-en-1-one] | 10 to 1000 nM | 10 to 1000 nM | 10 to 1000 nM |
| CN(C)C/C=C/C(=O)N1CCCC(C#Cc2c(-c3ccc(Oc4ccccc4)cc3)c3c(N)ncnc3n2C)CC1 (stereo not drawn) [II-179, (E)-1-(4-((4-amino-7-methyl-5-(4-phenoxyphenyl)-7H-pyrrolo[2,3-d]pyrimidin-6-yl)ethynyl)azepan-1-yl)-4-(dimethylamino) but-2-en-1-one] | 10 to 1000 nM | 10 to 1000 nM | 10 to 1000 nM |
| Cn1c(C#CC2CCCN(C(=O)/C=C/CN3CCCCC3)CC2)c(-c2ccc(Oc3ccccc3)cc2)c2c(N)ncnc21 (stereo not drawn) [II-180, (E)-1-(4-((4-amino-7-methyl-5-(4-phenoxyphenyl)-7H-pyrrolo[2,3-d]pyrimidin-6-yl)ethynyl)azepan-1-yl)-4-(piperidin-1-yl)but-2-en-1-one formate] | 10 to 1000 nM | 1000 to 10000 nM | 1000 to 10000 nM |
| Cn1c(C#CC2CCCN(C(=O)/C=C/CN3CCOCC3)CC2)c(-c2ccc(Oc3ccccc3)cc2)c2c(N)ncnc21 (stereo not drawn) [II-181, (E)-1-(4-((4-amino-7-methyl-5-(4-phenoxyphenyl)-7H-pyrrolo[2,3-d]pyrimidin-6-yl)ethynyl)azepan-1-yl)-4-morpholinobut-2-en-1-one] | 10 to 1000 nM | 1000 to 10000 nM | 1000 to 10000 nM |
| Cn1c(C#CC2CCCN(C(=O)/C=C/CN3CCC3)CC2)c(-c2ccc(Oc3ccccc3)cc2)c2c(N)ncnc21 (stereo not drawn) [II-182, (E)-1-(4-((4-amino-7-methyl-5-(4-phenoxyphenyl)-7H-pyrrolo[2,3-d]pyrimidin-6-yl)ethynyl)azepan-1-yl)-4-(azetidin-1-yl)but-2-en-1-one] | ≤ 10 nM | ≤ 10 nM | ≤ 10 nM |
| Cn1c(C#CC2CCCN(C(=O)/C=C/CN3CC(O)C3)CC2)c(-c2ccc(Oc3ccccc3)cc2)c2c(N)ncnc21 (stereo not drawn) [II-183, (E)-1-(4-((4-amino-7-methyl-5-(4-phenoxyphenyl)-7H-pyrrolo[2,3-d]pyrimidin-6-yl)ethynyl)azepan-1-yl)-4-(3-hydroxyazetidin-1-yl)but-2-en-1-one] | 10 to 1000 nM | 10 to 1000 nM | 1000 to 10000 nM |
| Cn1c(C#CC2CCCN(C(=O)/C=C/CN3CC(F)C3)CC2)c(-c2ccc(Oc3ccccc3)cc2)c2c(N)ncnc21 (stereo not drawn) [II-184, (E)-1-(4-((4-amino-7-methyl-5-(4-phenoxyphenyl)-7H-pyrrolo[2,3-d]pyrimidin-6-yl)ethynyl)azepan-1-yl)-4-(3-fluoroazetidin-1-yl)but-2-en-1-one] | 10 to 1000 nM | 1000 to 10000 nM | 1000 to 10000 nM |
